Assay [1] deals with Pseudomonas aeruginosa. In words: Antibacterial activity against Pseudomonas aeruginosa 5567 in presence of human serum albumin by CLSI method. It is filed as functional.
Assay [2] has as its system Pseudomonas aeruginosa. Description: Antibacterial activity against Pseudomonas aeruginosa 5567 in absence of human serum albumin by CLSI method. It is filed as functional.
The next assay has as its system Klebsiella pneumoniae. Description: Antibacterial activity against Klebsiella pneumoniae ATCC 13883 by CLSI method. Type of assay: functional.
Assay [3] concerns Pseudomonas aeruginosa. In words: Antibacterial activity against Pseudomonas aeruginosa ATCC 27853 by CLSI method. It is filed as functional.
Assay [4] has as its system Escherichia coli. Description: Antibacterial activity against Escherichia coli ATCC 25922 by CLSI method. Type of assay: functional.
Assay [5] addresses T1, UDP-3-O-acyl-N-acetylglucosamine deacetylase (Pseudomonas aeruginosa (strain ATCC 15692 / PAO1 / 1C / PRS 101 / LMG12228), UniProt P47205).
T1 sequence (P47205 whole entry): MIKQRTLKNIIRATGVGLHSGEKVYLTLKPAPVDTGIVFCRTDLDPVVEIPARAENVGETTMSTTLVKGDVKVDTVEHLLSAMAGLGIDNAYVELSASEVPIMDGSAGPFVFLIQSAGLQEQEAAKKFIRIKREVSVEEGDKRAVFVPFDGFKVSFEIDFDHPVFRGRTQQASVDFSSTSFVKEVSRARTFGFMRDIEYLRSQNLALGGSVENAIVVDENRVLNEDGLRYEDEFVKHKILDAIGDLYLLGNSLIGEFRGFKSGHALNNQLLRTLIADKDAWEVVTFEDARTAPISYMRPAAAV
Description: Inhibition of histidine-tagged Pseudomonas aeruginosa LpxC (1-303) expressed in Escherichia coli BL21 (DE3) using UDP-3-O-(R-3-hydroxydecanoyl)-N-acetylglucosamine as substrate measured after 60 mins by Fluorescence plate reader analysis.

For assay [6], the target named is T1, UDP-3-O-acyl-N-acetylglucosamine deacetylase. Description: Displacement of (S)-N-(2-(N-(3-biphenyl-4-ylcarboxamido-4-(hydroxyamino)-4-oxobutyl)sulfamoyl)ethyl)-3',6'-dihydroxy-3-oxo-3H-spiro[isobenzofuran-1,9'-xanthene]-5-carboxamide fluorescent probe from histidine tagged Pseudomonas aeruginosa LpxC (1-303) expressed in Escherichia coli BL21 (DE3) preincubated for 30 mins followed by addition of fluorscein probe measured after 2 hrs by fluorescence ….

Assay [7] deals with Matrix metalloproteinase-9 (Homo sapiens, UniProt P14780). In words: Inhibition of human MMP-9 by fluorometric assay.
In a further assay the target is Stromelysin-1 (Homo sapiens, UniProt P08254). In words: Inhibition of human MMP-3 by fluorometric assay.
In assay [8] the target is 72 kDa type IV collagenase (Homo sapiens, UniProt P08253). Description: Inhibition of human MMP-2 by fluorometric assay.
Assay [9] concerns the target T1, UDP-3-O-acyl-N-acetylglucosamine deacetylase. Description: Inhibition of histidine-tagged Pseudomonas aeruginosa LpxC (1-303) expressed in Escherichia coli BL21 (DE3) using UDP-3-O-(R-3-hydroxydecanoyl)-N-acetylglucosamine as substrate measured after 60 mins by LC-MS/MS analysis.
For assay [10], the system named is Escherichia coli. In words: Antibacterial activity against Escherichia coli ATCC 25922 in presence of efflux pump inhibitor phenylalanine-arginine beta-naphthylamideby CLSI method. Type of assay: functional.
In assay [11] the test system is Pseudomonas aeruginosa. In words: Antibacterial activity against Pseudomonas aeruginosa ATCC 27853 in presence of efflux pump inhibitor phenylalanine-arginine beta-naphthylamide by CLSI method. It is filed as functional.

≈ marks a conversion by molar mass, not a printed value. Calls of active or inactive are those of the source.

Sequence of 72 kDa type IV collagenase (P08253 whole entry): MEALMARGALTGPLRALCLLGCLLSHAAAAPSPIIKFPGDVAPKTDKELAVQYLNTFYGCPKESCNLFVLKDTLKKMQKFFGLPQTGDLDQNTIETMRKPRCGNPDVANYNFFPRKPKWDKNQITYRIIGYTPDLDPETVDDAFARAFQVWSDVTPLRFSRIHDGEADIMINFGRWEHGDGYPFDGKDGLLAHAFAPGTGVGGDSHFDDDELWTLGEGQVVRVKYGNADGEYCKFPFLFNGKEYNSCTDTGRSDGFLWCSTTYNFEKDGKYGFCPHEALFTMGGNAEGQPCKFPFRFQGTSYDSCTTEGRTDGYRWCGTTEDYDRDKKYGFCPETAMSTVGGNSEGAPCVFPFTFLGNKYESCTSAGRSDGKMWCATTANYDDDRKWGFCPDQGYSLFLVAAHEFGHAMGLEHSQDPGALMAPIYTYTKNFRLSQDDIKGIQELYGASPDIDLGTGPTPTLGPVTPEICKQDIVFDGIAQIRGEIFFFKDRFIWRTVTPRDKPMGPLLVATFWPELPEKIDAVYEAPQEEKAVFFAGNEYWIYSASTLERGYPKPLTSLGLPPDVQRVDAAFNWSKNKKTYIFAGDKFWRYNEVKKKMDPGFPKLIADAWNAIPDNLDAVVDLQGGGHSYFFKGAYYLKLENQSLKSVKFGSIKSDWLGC
Sequence of Stromelysin-1 (P08254 whole entry): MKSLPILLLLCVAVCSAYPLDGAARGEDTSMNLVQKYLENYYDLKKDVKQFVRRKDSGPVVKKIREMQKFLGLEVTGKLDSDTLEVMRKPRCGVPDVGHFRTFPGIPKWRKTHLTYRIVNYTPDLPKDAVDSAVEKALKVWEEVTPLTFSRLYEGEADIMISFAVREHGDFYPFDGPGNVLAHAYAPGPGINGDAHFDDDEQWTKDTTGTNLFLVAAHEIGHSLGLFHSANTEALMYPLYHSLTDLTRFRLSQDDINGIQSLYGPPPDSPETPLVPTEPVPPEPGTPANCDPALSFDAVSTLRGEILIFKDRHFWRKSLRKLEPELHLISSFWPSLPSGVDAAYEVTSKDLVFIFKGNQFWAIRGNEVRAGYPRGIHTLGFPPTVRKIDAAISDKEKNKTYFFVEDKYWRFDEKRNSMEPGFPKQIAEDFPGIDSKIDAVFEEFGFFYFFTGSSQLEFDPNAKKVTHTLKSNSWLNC
Sequence of Matrix metalloproteinase-9 (P14780 whole entry): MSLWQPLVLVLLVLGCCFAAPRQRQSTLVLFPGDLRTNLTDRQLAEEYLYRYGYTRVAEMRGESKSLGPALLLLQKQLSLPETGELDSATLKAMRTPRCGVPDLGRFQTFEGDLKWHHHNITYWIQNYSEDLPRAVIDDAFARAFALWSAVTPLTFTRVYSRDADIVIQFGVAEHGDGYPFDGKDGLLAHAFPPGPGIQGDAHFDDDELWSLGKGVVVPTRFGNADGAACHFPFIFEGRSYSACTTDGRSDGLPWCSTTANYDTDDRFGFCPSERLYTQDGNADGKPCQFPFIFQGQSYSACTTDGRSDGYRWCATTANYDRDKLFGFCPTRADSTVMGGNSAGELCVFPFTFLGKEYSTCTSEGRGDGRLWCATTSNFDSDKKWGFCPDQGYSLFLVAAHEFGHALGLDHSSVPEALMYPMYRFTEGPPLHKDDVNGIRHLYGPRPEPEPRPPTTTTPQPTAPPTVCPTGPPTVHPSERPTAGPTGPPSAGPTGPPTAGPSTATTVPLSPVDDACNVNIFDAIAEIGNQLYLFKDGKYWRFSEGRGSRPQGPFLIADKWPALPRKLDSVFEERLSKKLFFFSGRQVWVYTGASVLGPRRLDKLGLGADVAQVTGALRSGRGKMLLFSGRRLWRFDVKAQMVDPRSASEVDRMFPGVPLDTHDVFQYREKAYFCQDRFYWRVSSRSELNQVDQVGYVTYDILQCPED

In general, MIC refers to the smallest concentration in the dilution series that meets the test's criterion for growth inhibition. One may read the IC50 as the concentration at which inhibition is half-maximal. A lower IC50 goes with higher potency. `CC(O)c1nccn1Cc1cc(C#Cc2ccc(CCCO)cc2)on1` (racemic): the MIC in the assay with Pseudomonas aeruginosa [1] was above 128 µg/mL; in the assay on Pseudomonas aeruginosa [2] it was 32 µg/mL (≈ 91.1 µM); against Klebsiella pneumoniae it was 4 µg/mL (≈ 11.4 µM); against Pseudomonas aeruginosa [3], 64 µg/mL (≈ 182 µM); against Escherichia coli [4] it was 2 µg/mL (≈ 5.69 µM). In assay [5], this compound yielded an IC50 of 0.00896 µM.

For the compound `CC(O)c1nccn1Cc1cc(C#Cc2ccccc2)on1` (racemic), the MIC in the assay on Pseudomonas aeruginosa [1] is above 128 µg/mL; in the assay on Pseudomonas aeruginosa [2] it was 64 µg/mL (≈ 218 µM); in the assay with Klebsiella pneumoniae, 32 µg/mL (≈ 109 µM); in the assay with Pseudomonas aeruginosa [3], above 128 µg/mL; in the assay on Escherichia coli [4], 16 µg/mL (≈ 54.5 µM). The IC50 worked out at 0.0475 µM in [5] and 0.0206 µM in assay [6].

As to `C[C@H](O)c1nccn1Cc1cc(C#Cc2ccc(OCC(N)(CO)CO)cc2)on1`, the IC50 in [7] was above 100 µM; against Stromelysin-1 it was above 100 µM; in [8], above 100 µM; in [5], 0.02 µM. In addition, the MIC in the assay with Pseudomonas aeruginosa [1] was found to be 8 µg/mL; with Pseudomonas aeruginosa [2], 4 µg/mL (≈ 9.7 µM); with Klebsiella pneumoniae it was 64 µg/mL (≈ 155 µM); in the assay on Pseudomonas aeruginosa [3], 4 µg/mL (≈ 9.7 µM); in the assay on Escherichia coli [4] it was 16 µg/mL (≈ 38.8 µM).

At Stromelysin-1, `CNC(=O)[C@H](Cc1c[nH]c2ccccc12)NC(=O)[C@@H](CC(=O)NO)CC(C)C` [ILOMASTAT] came in with a concentration for half-maximal inhibition (IC50) of 0.015 µM.

As to `NCC(=O)Nc1cccc(OC(F)(F)F)c1`, the IC50 came to 41.9 µM in assay [9] and 54.9 µM in assay [6].

As to `CC(O)c1nccn1CCc1ccc(Cl)cc1` (racemic), the figures for the IC50 in [5] and in assay [6] were 261 µM and 67.8 µM, respectively.

With `OC(COc1ccccc1)Cn1ccnc1` (racemic), the IC50 in assay [5] was 1130 µM; in assay [6], above 2000 µM.

On to `CC(O)c1nccn1Cc1ccc(C#Cc2ccccc2)cc1` (racemic), for which the result in the assay on Escherichia coli [10] was inactive. Besides, the IC50 is 0.568 µM in assay [5] and 0.0929 µM in assay [6].

As to `C[C@H](O)c1nccn1Cc1cc(C#Cc2ccc(OC3CN(CCO)C3)cc2)on1`, the MIC was 16 µg/mL in the assay with Pseudomonas aeruginosa [1]; 4 µg/mL (≈ 9.79 µM) in the assay with Pseudomonas aeruginosa [2]; 4 µg/mL (≈ 9.79 µM) in the assay on Klebsiella pneumoniae; 4 µg/mL (≈ 9.79 µM) in the assay with Pseudomonas aeruginosa [3]; 4 µg/mL (≈ 9.79 µM) against Escherichia coli [4]. In assay [5], this compound gave an IC50 of 0.00442 µM.

Regarding `OC(COc1ccc(Cl)cc1)Cn1ccnc1` (racemic), the IC50 was determined as 466 µM in assay [5] and 259 µM in assay [6].

Regarding `N[C@H](CO)C(=O)N1CCC(Cc2ccccc2)CC1`, the IC50 in assay [9] stood at 24.9 µM.

Turning to `Clc1ccc(CCCCn2ccnc2)cc1`, the IC50 in [5] was found to be 60.4 µM; in [6], 43.2 µM.

In the case of `C[C@H](O)c1nccn1Cc1cc(C#Cc2ccc(CCCO)cc2)on1`, the MIC was above 64 µg/mL with Pseudomonas aeruginosa [1]; 16 µg/mL (≈ 45.5 µM) in the assay on Pseudomonas aeruginosa [2]; 2 µg/mL (≈ 5.69 µM) against Klebsiella pneumoniae; 32 µg/mL (≈ 91.1 µM) in the assay on Pseudomonas aeruginosa [3]; 0.5 µg/mL (≈ 1.42 µM) with Escherichia coli [4]. The same compound came in with a half-maximal inhibitory concentration (IC50) in assay [5] of 0.00403 µM.

On to `O=C(NO)[C@@H](Cc1ccc2ccccc2c1)NS(=O)(=O)c1ccc2ccccc2c1`, for which the values for the IC50 (in assay [7]; against Stromelysin-1; in assay [8]) were 0.0972 µM, 0.416 µM and 0.0175 µM, respectively.

Turning to `C[C@@H](O)c1nccn1Cc1cc(C#Cc2ccc(CCCO)cc2)on1`, the MIC in the assay on Pseudomonas aeruginosa [1], against Pseudomonas aeruginosa [2], against Klebsiella pneumoniae, against Pseudomonas aeruginosa [3] and against Escherichia coli [4] was above 128 µg/mL throughout. In [5], this compound came in with an IC50 of 1.4 µM.

As for `OCc1nccn1CCCc1ccc(Cl)cc1`, the IC50 stood at 108 µM in assay [5] and 36.7 µM in assay [6].

As to `CC(O)c1nccn1Cc1ccc(-c2ccccc2)cc1` (racemic), the IC50 in assay [5] was 3.94 µM; in assay [6], 0.546 µM.

`N[C@H](CO)C(=O)N1CCC(Cc2ccc(C#Cc3ccc(CO)cc3)cc2)CC1`: the MIC against Pseudomonas aeruginosa [3] was above 32 µg/mL; with Pseudomonas aeruginosa [11] it was 32 µg/mL; against Escherichia coli [4] it was above 32 µg/mL; with Escherichia coli [10], 16 µg/mL. The compound further returned an IC50 in assay [9] of 0.0221 µM.

In the case of `N[C@H](CO)C(=O)N1CCC(Cc2ccc(C#Cc3ccccc3)cc2)CC1`, the IC50 in assay [9] stood at 0.034 µM.

For the compound `NC[C@@H](N)C(=O)Nc1cccc(OC(F)(F)F)c1`, the IC50 was found to be 36.7 µM in [9] and 40.1 µM in assay [6].

In the case of `CS(=O)(=O)NC[C@@H](N)C(=O)Nc1cccc(OC(F)(F)F)c1`, the IC50 was determined as 43.8 µM in assay [9] and 37.9 µM in assay [6].

Turning to `C[C@H](O)c1nccn1Cc1cc(C#Cc2ccc(OCCCNCCN)cc2)on1`, the MIC in the assay with Pseudomonas aeruginosa [1] was 16 µg/mL; against Pseudomonas aeruginosa [2] it was 4 µg/mL (≈ 9.77 µM); in the assay on Klebsiella pneumoniae, 32 µg/mL (≈ 78.1 µM); against Pseudomonas aeruginosa [3], 2 µg/mL (≈ 4.88 µM); in the assay with Escherichia coli [4], 2 µg/mL (≈ 4.88 µM). The IC50 in assay [5] was determined as 0.00704 µM.

With `Clc1ccc(CCCn2ccnc2)cc1`, the IC50 in assay [5] stood at 111 µM; in [6], 125 µM.

Regarding `CC(O)c1nccn1CCc1ccc(-c2ccccc2)cc1` (racemic), the IC50 in assay [5] was found to be 10.4 µM; in assay [6] it was 6.48 µM.

`CS(=O)(=O)C[C@H](O)[C@@H](N)C(=O)N1CCC(Cc2ccc(C#Cc3ccc(CO)cc3)cc2)CC1` (racemic): the IC50 (in [7]; at Stromelysin-1; in assay [8]) was above 100 µM throughout. Moreover, the MIC in the assay on Pseudomonas aeruginosa [3] came out at 64 µg/mL (≈ 132 µM); in the assay with Pseudomonas aeruginosa [11], 8 µg/mL; in the assay on Escherichia coli [4], 64 µg/mL (≈ 132 µM); in the assay with Escherichia coli [10], 1 µg/mL.

With `CC(O)c1nccn1CCCc1ccc(Cl)cc1` (racemic), the IC50 is 10.4 µM in [5] and 0.809 µM in assay [6].

Consider `CS(=O)(=O)CC[C@@H](N)C(=O)Nc1cccc(OC(F)(F)F)c1`, for which the results for the IC50 in assay [9] and in [6] were 10 µM and 8.97 µM, respectively.

The compound `Clc1ccc(CCn2ccnc2)cc1` registered an IC50 in assay [6] of 2780 µM.

With `C[C@H](O)c1nccn1Cc1cc(C#Cc2ccc(OCCCNC3COC3)cc2)on1`, the MIC was found to be 64 µg/mL in the assay with Pseudomonas aeruginosa [1]; 8 µg/mL (≈ 18.9 µM) against Pseudomonas aeruginosa [2]; 1 µg/mL (≈ 2.37 µM) against Klebsiella pneumoniae; 8 µg/mL (≈ 18.9 µM) in the assay with Pseudomonas aeruginosa [3]; 1 µg/mL (≈ 2.37 µM) against Escherichia coli [4]. The compound further displayed an IC50 in [5] of 0.00463 µM.

With `CC(O)c1nccn1Cc1ccc(Cl)cc1` (racemic), the IC50 in [5] came to 214 µM; in assay [6] it was 39.9 µM.

Consider `CC(O)c1nccn1CCCc1ccc(C#Cc2ccccc2)cc1` (racemic), for which the IC50 in assay [5] is 0.161 µM; in assay [6], 0.0522 µM.

For the compound `N[C@H](CC(=O)O)C(=O)Nc1cccc(OC(F)(F)F)c1`, the IC50 was 11.3 µM in assay [9] and 5.69 µM in [6].

`CC(O)c1nccn1Cc1cc(-c2ccccc2)on1` (racemic): the IC50 in [5] came out at 0.884 µM; in assay [6], 0.125 µM.

For `CS(=O)(=O)C[C@@H](N)C(=O)Nc1cccc(OC(F)(F)F)c1`, the IC50 in assay [9] and in assay [6] was above 100 µM in each case.

As to `N[C@H](CO)C(=O)N1CCC(Cc2ccc(-c3ccccc3)cc2)CC1`, in assay [9], the IC50 came out at 0.66 µM.

Take `N[C@H](CO)C(=O)N1CCC(Cc2ccc(CCc3ccccc3)cc2)CC1`: in assay [9], 4.53 µM corresponded to half-maximal inhibition (IC50).

Take `CC(O)c1nccn1CCc1ccc(C#Cc2ccccc2)cc1` (racemic): the 50% inhibitory concentration (IC50) in assay [5] worked out at 2.4 µM; in assay [6] it was 1.76 µM.

For `Clc1ccc(OCCCn2ccnc2)cc1`, the IC50 in [5] worked out at 144 µM; in [6], 118 µM.

For `CC(O)c1nccn1CCCc1ccc(-c2ccccc2)cc1` (racemic), the figures for the IC50 in [5] and in assay [6] were 0.133 µM and 0.0269 µM, respectively.

(Values after ChEMBL document CHEMBL4673300, “Fragment-Based Discovery of Novel Non-Hydroxamate LpxC Inhibitors with Antibacterial Activity” (J Med Chem, 2020).)
